Source: publication PMC4233638, “Proanthocyanidin synthesis in Theobroma cacao: genes encoding anthocyanidin synthase, anthocyanidin reductase, and leucoanthocyanidin reductase” (BMC Plant Biology, 2013)

Target: T1, TcLAR (Theobroma cacao, UniProt D3XFG4)
T1 construct: gene LAR; full-length ORF (361 residues, 1,083 bp) in pET-21a, C-terminal 6xHis tag kept, E. coli Rosetta (DE3), purified by Magne-His
Test: HPLC-UV and radioactivity detection of catechin product
Format: biochemical
Details: labelled compound (3H); 0.4 mM substrate, 0.5 mM NADPH, 100 mM potassium phosphate pH 7.0, 4 mM DTT, 10% glycerol, 30 C, 1 h

T1 sequence (D3XFG4 entry or part of it): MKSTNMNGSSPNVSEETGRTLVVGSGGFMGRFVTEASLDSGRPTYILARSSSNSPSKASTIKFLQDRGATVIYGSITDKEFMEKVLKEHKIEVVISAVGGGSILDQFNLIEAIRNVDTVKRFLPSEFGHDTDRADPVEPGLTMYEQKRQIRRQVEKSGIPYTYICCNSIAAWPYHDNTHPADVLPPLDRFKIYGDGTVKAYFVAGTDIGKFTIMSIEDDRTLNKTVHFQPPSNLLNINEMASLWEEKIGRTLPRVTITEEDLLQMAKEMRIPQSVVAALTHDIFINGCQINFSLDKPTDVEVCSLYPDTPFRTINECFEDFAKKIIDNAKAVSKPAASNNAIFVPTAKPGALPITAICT

## Oc1cc(O)c2c(c1)O[C@H](c1ccc(O)c(O)c1)[C@@H](O)[C@H]2O [leucocyanidin]
  HPLC-UV and radioactivity detection of catechin product: detected when TcLAR protein was incubated with ^3H -labeled leucocyanidin
